| SMILES | melting point [°C] |
| --- | --- |
| O=C(O)C=CSCc1ccco1 | 119 to 121 |
| O=S(=O)(NC1CCCNC1)c1cccc(F)c1 (configuration not stated) | 137 to 139 |
| Nc1ccc(S(=O)(=O)N2CCC(Cc3ccccc3)CC2)cc1 | 153 to 155 |
| COC1(OC)CC(CO)(CO)C1 | 48 to 50 |
| O=c1[nH]nnc2sc3c(c12)CCCC3 | 185 to 187 |
| CN1CCN(C(N)=O)C(c2ccccc2)C1 (configuration not stated) | 94 to 96 |
| O=C(O)CC1COCCN1 (configuration not stated) | 253 to 255 |
| CNS(=O)(=O)c1ccc(Br)s1 | 59 to 61 |
| O=C(O)c1ccc(C=C2NC(=S)N(c3ccc(F)cc3)C2=O)cc1 | 349 to 351 |
| COc1cc(C=CC(=O)O)ccc1F | 211 to 213 |
| Cc1sc2nc(CCCC(=O)O)[nH]c(=O)c2c1C | 243 to 245 |
| COc1cc(C)cc(C(=O)O)c1O | 189 to 191 |
| CS(=O)(=O)Nc1cc(C(=O)O)ccc1Cl | 275 to 277 |
| NC(=NO)c1ccnc(N2CCCCC2)c1 | 179 to 181 |
| Nc1c(C(=O)O)[nH]c(=O)[nH]c1=O | 300 to 302 |
| O=C(O)Cc1coc2cc3c(cc12)CCC3 | 151 to 153 |
| N#CC1CNCCN1Cc1ccccc1 (configuration not stated) | 98 to 100 |
| CC(C)(C)C1CCN(S(=O)(=O)Cl)CC1 | 69 to 71 |
| NNC(=O)CCc1ccc(S(=O)(=O)N2CCOCC2)cc1 | 128 to 130 |

| SMILES | melting point [°C] |
| --- | --- |
| CC(C)n1cnc(S(=O)(=O)Cl)c1 | 62 to 64 |
| O=C(O)c1ccccc1NS(=O)(=O)C(F)(F)F | 164 to 166 |
| NS(=O)(=O)c1c(Cl)cccc1Cl | 176 to 178 |
| CC(C)(C)OC(=O)NCC(N)C1CCCCC1 (configuration not stated) | 47 to 49 |
| CCOC(=O)CN(C)c1ccncc1[N+](=O)[O-] | 82 to 84 |
| CCN(CC)Cc1ccc(C(=O)O)cc1 | 154 to 156 |
| c1nnc(C2CCCNC2)[nH]1 (configuration not stated) | 149 to 151 |
| Nc1cc(Cl)n[nH]1 | 93 to 95 |
| CN(C)S(=O)(=O)c1ccc(C(=O)O)cc1 | 249 to 251 |
| COc1ccc(C(=O)O)c(I)c1 | 182 to 184 |
| OCc1cc(Br)cc(CO)c1O | 164 to 166 |
| O=C(O)c1c(F)ccc([N+](=O)[O-])c1F | 92 to 96 |
| Cc1cc(C(=O)O)c(C(=O)O)s1 | 210 to 212 |
| CN(C)C(=O)c1cc(S(=O)(=O)Cl)cn1C | 105 to 107 |
| COC(=O)c1ccc(S(=O)(=O)Cl)c([N+](=O)[O-])c1 | 100 to 102 |
| NCc1ccc(C(N)=O)cc1 | 141 to 143 |
| Cn1c(O)nnc1S | 216 to 218 |
| c1cc(C2CCNCC2)[nH]n1 | 146 to 148 |
| O=C(O)CCSCc1nc2sc3c(c2c(=O)[nH]1)CCC3 | 227 to 229 |

| SMILES | melting point [°C] |
| --- | --- |
| CN(c1ccc(C(=O)O)cc1)C1CCCCC1 | 148 to 150 |
| O=C(O)CSc1cc(Cl)ccc1Cl | 129 to 131 |
| O=C(O)Cc1ccc(NC(=O)c2ccccc2I)cc1 | 226 to 228 |
| O=C(O)Cn1cccn1 | 139 to 141 |
| CCS(=O)(=O)c1ccccc1C(=O)O | 49 to 53 |
| NNC(=O)NCCc1cccs1 | 90 to 92 |
| O=C1CN=C(S)N1C1CCCCCC1 | 72 to 74 |
| CC(C)Cc1ccc(C=CC(=O)O)cc1 | 159 to 161 |
| CC(=O)NCC(O)c1ccccc1 (configuration not stated) | 119 to 121 |
| Cc1c(C(=O)O)[nH]c2c1C(=O)CC(C)(C)C2 | 206 to 208 |
| NC(=O)NCCCCCC(=O)O | 175 to 177 |
| Clc1cc(N2CCSCC2)ncn1 | 134 to 136 |
| CS(=O)(=O)N1CC(C(=O)O)Oc2ccccc21 (configuration not stated) | 167 to 169 |
| O=c1c2ccccc2nc(O)n1-c1ccccc1 | 217 to 220 |
| O=C(O)CCCCCN1C(=O)CSC1=S | 85 to 87 |
| Cc1nn(-c2ccc(C(F)(F)F)cn2)c(C)c1CC(=O)O | 142 to 144 |
| O=C1Nc2ccccc2C1=NO | 242 to 244 |
| Cc1cc(Br)c(NC(=O)CCl)c(Br)c1 | 177 to 178 |
| O=C(O)c1ccc(S(=O)(=O)NCC2CCCO2)cc1 (configuration not stated) | 169 to 171 |

The next lines start with the values.

| melting point [°C] | SMILES |
| --- | --- |
| 86 to 90 | O=C(Nc1cccnc1)C(Cl)C(=O)c1ccccc1 (configuration not stated) |
| 177 to 179 | Cc1ccc(CN(C)c2ccc(C(=O)O)cc2)cc1 |
| 45 to 47 | CC1CC(=O)c2cccc(Br)c21 (configuration not stated) |
| 130 to 132 | NCc1ccc(OCCOc2ccc(Cl)cc2)cc1 |
| 111 to 115 | NC(=S)COc1ccccc1 |
| 63 to 65 | O=[N+]([O-])c1cccc(OCC2CO2)c1 (configuration not stated) |
| 69 to 71 | Cc1cc(N)ccc1C(=O)OC(C)(C)C |
| 149 to 151 | Cc1ccc(-n2nc(C(=O)O)cc2C)cc1 |
| 289 to 291 | Nc1cnc(Cl)cc1C(=O)O |
| 100 to 102 | OCc1nnnn1-c1ccccc1 |
| 119 to 121 | COc1ccc(NS(=O)(=O)c2ccc(N)cc2)c(OC)c1 |
| 64 to 66 | NCc1ccc(-c2ccncc2)cc1 |
| 257 to 259 | N#Cc1c(N)nc2sc(C(=O)Nc3ccc(Br)cc3)c(N)c2c1-c1ccco1 |
| 176 to 178 | Cc1nn(C)c2ncc(C#N)cc12 |
| 143 to 145 | Sc1nnc(NCCc2ccccc2)s1 |
| 158 to 160 | Nc1ccc(Cl)c(S(=O)(=O)Nc2cccc(Cl)c2)c1 |
| 91 to 93 | COc1ccc(C#N)c(N)c1 |
| 117 to 119 | CS(=O)(=O)Nc1cccc2c1CCCN2 |
| 172 to 174 | CSc1ccc(CNc2ccc3[nH]c(C)nc3c2)cc1 |
| 209 to 211 | O=C(O)c1cn(-c2ccccc2)nc1-c1ccc(Cl)s1 |
| 60 to 62 | CC(C)(C)Sc1ccc(C#N)nc1 |
| 144 to 146 | Cn1c(CO)nc2ccccc21 |
| 134 to 136 | O=[N+]([O-])c1ccc(Br)c2ccncc12 |

| melting point [°C] | SMILES |
| --- | --- |
| 126 to 128 | Cc1cc(Sc2ncccn2)ccc1N |
| 183 to 185 | O=C(O)c1ccccc1NCc1ccccc1Cl |
| 108 to 110 | Cc1csc(-c2cccc(O)c2)n1 |
| 179 to 181 | Cc1c(C(=O)O)nnn1-c1cccc(Cl)c1 |
| 208 to 210 | Cc1ccc(C(=O)Nc2ccc(O)cc2)cc1 |
| 137 to 139 | CS(=O)(=O)Cc1ccc(Cl)c(N)c1 |
| 47 to 49 | Clc1cncc(OCc2ccccc2)n1 |
| 145 to 147 | Nc1ccc(N2CCCCC2)c(S(=O)(=O)Nc2ccc(Cl)cc2)c1 |
| 148 to 150 | CCOC(=O)C(N)c1cccc(O)c1 (configuration not stated) |
| 81 to 83 | Cc1cc(Cl)c2cc(OC(F)F)ccc2n1 |
| 160 to 162 | O=C(O)c1ccccc1OCc1cccnc1 |
| 204 to 208 | COc1ccc(-c2nnc(S)n2N)cc1OC |
| 273 to 276 | Cc1cc(S(=O)(=O)c2ccc(O)c(C)c2)ccc1O |
| 109 to 111 | COC(=O)COc1ccc2cc(Br)ccc2c1 |
| 149 to 151 | Cc1cc2ncc(C=O)cn2n1 |
| 198 to 200 | Nc1ncc(-c2ccccc2)s1 |
| 233 to 235 | COC(=O)c1cc(C(=O)O)ccn1 |
| 102 to 104 | Cc1cc(=O)oc2cc(OCCBr)ccc12 |
| 187 to 189 | O=C(O)c1ccc(Br)cc1Oc1ccc(F)cc1 |
| 191 to 193 | O=C(O)CCc1nnc(-c2ccccn2)o1 |
| 240 to 242 | Nc1nc2cc(S(=O)(=O)N3CCCC3)ccc2o1 |
| 151 to 153 | CCc1cc(N)c2cc(N)ccc2n1 |
